Our source for the fold induction, IC50 and Kd values is patent US20220324835A1 (Nurix Therapeutics, Inc., priority 2018, published 2022).

As usually defined, the IC50 is the concentration needed to halve the response being measured. As a reminder, the Kd is the free concentration of one partner at which half of the binding sites on the other are occupied at equilibrium, for simple one-to-one binding. A low value points to higher affinity.

Experiment [1] deals with T-cell. Kind of experiment: IL-2 secretion from T-cells stimulated with anti-CD3 antibody alone (Biological Example 2). The conditions noted are these: primary human total T-cells, read-out: IL-2 secretion, Anti-CD3 stimulation, fold change over baseline. It is filed as cell-based.
Experiment [2] concerns T-cell. Kind of experiment: IL-2 secretion from T-cells co-stimulated with anti-CD3 and anti-CD28 antibody (Biological Example 2). It is filed as cell-based, human. The conditions noted are these: Homo sapiens, T-cell, primary human total T-cells. Put shortly: (§1)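 No assay protocol given; T-cells stimulated with anti-CD3 alone or anti-CD3 plus anti-CD28, with or without Cbl-b inhibitor. Activation read as IL-2 secretion or CD25 surface staining, expressed as fold over baseline from uninhibited cells […].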

The test system of experiment [3] is T-cell. Kind of experiment: CD25 cell surface staining on T-cells stimulated with anti-CD3 antibody alone (Biological Example 2). The format is cell-based. Conditions: primary human total T-cells, baseline = anti-CD3/anti-CD28 stimulated cells without inhibitor, read-out: CD25 staining, Anti-CD3 stimulation, fold change over baseline.
For experiment [4], the system named is T-cell. Kind of experiment: CD25 cell surface staining on T-cells co-stimulated with anti-CD3 and anti-CD28 antibody (Biological Example 2). Conditions: Homo sapiens, T-cell, primary human total T-cells. It is filed as cell-based, human. Put shortly: as §1
In another experiment the test system is primary human NK cells. Nature of the experiment: NK cell activation assessed by cytokine secretion (coculture with K562 NucRed target cells). The format is cell-based. The protocol:
Peripheral blood mononuclear cells (PBMC) were obtained either: 1) by using Ficoll-Paque™ (GE Healthcare) for separation of peripheral blood hematopoietic cells from buffy coats of healthy human donors; or 2) directly from LeukoPak donations. […] The cells were cultured overnight with IL-2 (60 ng/mL) at 37° C. 5% CO2. Cbl-b inhibitors were added 1 hour prior to stimulation and incubated at 37° C. 5% CO2 at a specific concentration (e.g., 10 μM, 1 μM, or 0.1 μM) with a final DMSO concentration of <0.1%. NK cells were co-cultured with target cells that were engineered to have a red nucleus (K562 NucRed) measurable by flow cytometry. […] The cells were mixed at the indicated ratios (e.g., 5:1, 1:1, or 1:5) of NK (effector cells) to K562 NucRed (target cells) for 6 hours. Cell free supernatants were collected and analyzed for cytokine secretion (e.g. TNFα, IFNγ, or MIP1β) by ELISA or Luminex multiplex kits following the manufacturer's protocol. IFNγ secretion was assessed using an R&D Systems ELISA kit (Catalog #DY285), TNFα secretion was assessed using an R&D Systems ELISA kit (Catalog #DY210), and MIP1β secretion was assessed using an R&D Systems ELISA kit (Catalog #DY271).
Readouts were reported as fold change over baseline. Baseline for this study was the measurement obtained from primary human NK effector cells cocultured with K562 NucRed target cells in the absence of a Cbl-b inhibitor. For NK cells cocultured with K562 NucRed cells, changes greater than 2.0-fold over baseline for cytokine secretion were considered a positive response (Table 10a and 10b).

A further experiment concerns the target Cbl-b (Homo sapiens, UniProt Q13191). Kind of experiment: Cbl-b activity assay (Cbl-b inhibition assay), TR-FRET of Cbl-b interaction with UbcH5B-Ub. The format is biochemical. The conditions noted are these: assay buffer with 100 mM NaCl, 60 nM Src kinase; read-out: Cbl-b activity IC50. Put shortly: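 TR-FRET readout of Cbl-b binding to Bodipy-fluorescein N-terminally labeled Ub conjugated to UbcH5B C85K, measured with compound present. After compound incubation, 60 nM Src kinase with 1 mM ATP and 5 mM MgCl2 (final) was added for 1.5 h, then a further 1 h incubation; asterisked values used 50 mM NaCl buffer and 30 nM Src.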

Another experiment concerns the target Cbl-b (residues 36-427) (Homo sapiens, UniProt Q13191). Kind of experiment: Cbl-b binding assay (SPR, Biacore T200). The conditions noted are these: 20° C., 1:1 binding model. Put shortly:
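Affinities derived from global 1:1 steady-state or kinetic fits of double-referenced, solvent-corrected SPR data, 20 °C, NeutrAvidin-capture chip. Compound series (top 100 or 50 μM, 8–10 points) injected 50 s, 90–180 s dissociation. Asterisked values used 50 mM instead of 100 mM NaCl and 30 nM Src kinase.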
Background: In SPR one partner is held on a chip, and binding of the other changes the refractive index at the surface.

For experiment [5], the system named is T-cell. Nature of the experiment: CD25 cell surface staining on T-cells stimulated with anti-CD3 antibody alone (Biological Example 2). The format is cell-based, human. Conditions: T-cell, fold change over baseline, primary human total T-cells, read-out: CD25 staining Anti-CD3 stimulation; for fold induction at 1 µM: 1 μM Cbl-b inhibitor; for fold induction at 8 µM: 8 μM Cbl-b inhibitor.

The test system of experiment [6] is T-cell. Kind of experiment: IL-2 secretion from T-cells stimulated with anti-CD3 antibody alone (Biological Example 2). The format is cell-based, human. Conditions: T-cell, fold change over baseline, primary human total T-cells, read-out: IL-2 secretion Anti-CD3 stimulation; for fold induction at 1 µM: 1 μM Cbl-b inhibitor; for fold induction at 8 µM: 8 μM Cbl-b inhibitor.

The mark [7] stands for this setting: K562, 1:1 E/T, read-out: IFNγ secretion.
Where [8] appears, read: K562, 1:1 E/T, read-out: MIP1β secretion.
Setting [9] is: K562, 1:1 E/T, read-out: TNFα secretion.
The mark [10] stands for this setting: K562, 5:1 E/T, read-out: IFNγ secretion.
[11] abbreviates: K562, 5:1 E/T, read-out: MIP1β secretion.
The mark [12] stands for this setting: K562, 5:1 E/T, read-out: TNFα secretion.
[13] abbreviates: fold change over baseline, 0.3 μM Cbl-b inhibitor, read-out: IL-2 secretion Anti-CD3/Anti-CD28 stimulation.
Where [14] appears, read: fold change over baseline, 1 μM Cbl-b inhibitor, read-out: IL-2 secretion Anti-CD3/Anti-CD28 stimulation.
Setting [15] is: fold change over baseline, 4 μM Cbl-b inhibitor, read-out: IL-2 secretion Anti-CD3/Anti-CD28 stimulation.
The mark [16] stands for this setting: fold change over baseline, 0.3 μM Cbl-b inhibitor, read-out: CD25 staining Anti-CD3/Anti-CD28 stimulation.
[17] abbreviates: fold change over baseline, 1 μM Cbl-b inhibitor, read-out: CD25 staining Anti-CD3/Anti-CD28 stimulation.
Setting [18] is: fold change over baseline, 4 μM Cbl-b inhibitor, read-out: CD25 staining Anti-CD3/Anti-CD28 stimulation.

Where two headings read alike, the source gives them in different places.

Chain of Cbl-b (Q13191 36-427): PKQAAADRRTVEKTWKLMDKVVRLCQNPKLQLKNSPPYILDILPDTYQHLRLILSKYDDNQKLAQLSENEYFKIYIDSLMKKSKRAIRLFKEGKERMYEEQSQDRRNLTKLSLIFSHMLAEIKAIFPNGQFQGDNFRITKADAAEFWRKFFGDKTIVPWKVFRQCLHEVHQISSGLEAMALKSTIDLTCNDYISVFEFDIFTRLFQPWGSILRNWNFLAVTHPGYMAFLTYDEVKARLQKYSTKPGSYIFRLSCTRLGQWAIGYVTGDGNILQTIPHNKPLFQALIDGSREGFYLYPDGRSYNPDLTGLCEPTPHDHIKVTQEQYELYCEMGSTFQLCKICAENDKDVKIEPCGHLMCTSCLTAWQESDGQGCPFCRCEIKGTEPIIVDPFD
Chain of Cbl-b (residues 36-427) (Q13191 36-427): as above

`C[C@@H](c1cccc(N2Cc3c(cccc3C(F)(F)F)C2=O)c1)C(F)c1nncn1C` (stereo in doubt) [Compound 474, 2-(3-((1S, 2S)-1-fluoro-1-(4-methyl-4H-1,2,4-triazol-3-yl)propan-2-yl)phenyl)-4-(trifluoromethyl)isoindolin-1-one]: the fold induction at 1 µM in the experiment with T-cell [1] (1 μM compound) is 0.051 to 0.1; in the experiment with T-cell [2] (1 μM compound, baseline = anti-CD3/anti-CD28 stimulated cells without inhibitor, read-out: IL-2 secretion, Anti-CD3/Anti-CD28 stimulation, fold change over baseline), 1.01 to 2.5; with T-cell [3] (1 μM compound), 0.601 to 0.8; in the experiment on T-cell [4] (1 μM compound, baseline = anti-CD3/anti-CD28 stimulated cells without inhibitor, read-out: CD25 staining, Anti-CD3/Anti-CD28 stimulation, fold change over baseline), 1.01 to 1.3. In addition, the fold induction at 8 µM with T-cell [1] (8 μM compound) was greater than 0.201; with T-cell [3] (8 μM compound), greater than 1. The fold induction at 0.3 µM in the experiment with T-cell [2] (0.3 μM compound, baseline = anti-CD3/anti-CD28 stimulated cells without inhibitor, read-out: IL-2 secretion, Anti-CD3/Anti-CD28 stimulation, fold change over baseline) was in the range of 1.01 to 2.5; in the experiment with T-cell [4] (0.3 μM compound, baseline = anti-CD3/anti-CD28 stimulated cells without inhibitor, read-out: CD25 staining, Anti-CD3/Anti-CD28 stimulation, fold change over baseline) it was 1.01 to 1.3. In addition, the fold induction at 4 µM in the experiment on T-cell [2] (4 μM compound, baseline = anti-CD3/anti-CD28 stimulated cells without inhibitor, read-out: IL-2 secretion, Anti-CD3/Anti-CD28 stimulation, fold change over baseline) lay within 2.51 to 5; with T-cell [4] (4 μM compound, baseline = anti-CD3/anti-CD28 stimulated cells without inhibitor, read-out: CD25 staining, Anti-CD3/Anti-CD28 stimulation, fold change over baseline), 1.01 to 1.3.
On to `C[C@@H](Sc1nncn1C)c1cccc(NC(=O)c2ccc3ccccc3n2)c1` [Compound 9b, (R)-N-(3-(1-((4-methyl-4H-1,2,4-triazol-3-yl)thio)ethyl)phenyl)quinoline-2-carboxamide], for which the fold induction at 1 µM in the experiment with primary human NK cells (setting [7]) was less than 1; with primary human NK cells (setting [8]) it was 1.01 to 2; in the experiment with primary human NK cells (setting [9]) it was less than 1; in the experiment on primary human NK cells (setting [10]), less than 1; in the experiment on primary human NK cells (setting [11]), less than 1; in the experiment on primary human NK cells (setting [12]), less than 1. Also, the fold induction at 10 µM in the experiment with primary human NK cells (setting [7]), in the experiment on primary human NK cells (setting [8]), in the experiment with primary human NK cells (setting [9]), with primary human NK cells (setting [10]), with primary human NK cells (setting [11]) and in the experiment with primary human NK cells (setting [12]) was less than 1 throughout.
On to `CNC(=O)COc1ccc2cnc(C(=O)Nc3cccc([C@H](C)Sc4nncn4C)c3)cc2c1` [Compound 306a, (S)-N-(3-(1-(4-methyl-4H-1,2,4-triazol-3-ylthio)ethyl)phenyl)-6-(2-(methylamino)-2-oxoethoxy)isoquinoline-3-carboxamide], for which the IC50 at Cbl-b lay within 100 to 300 nM. For the same compound, the Kd on Cbl-b (residues 36-427) was in the range of 100 to 300 nM. For the same compound, the fold induction at 1 µM with T-cell [5] was less than 0.6; in the experiment with T-cell [2] (setting [14]) it was 1.01 to 2.5; in the experiment on T-cell [4] (setting [17]), 1.01 to 1.3; in the experiment with T-cell [6], less than 0.05. Further, the fold induction at 8 µM in the experiment on T-cell [5] is 0.801 to 1; with T-cell [6], less than 0.05. Also, the fold induction at 0.3 µM in the experiment with T-cell [2] (setting [13]) is less than 1; in the experiment on T-cell [4] (setting [16]) it was 1.01 to 1.3. Further, the results for the fold induction at 4 µM in the experiment on T-cell [2] (setting [15]) and in the experiment on T-cell [4] (setting [18]) were 1.01 to 2.5 and 1.01 to 1.3, respectively.
For `C[C@H](Sc1nncn1C)c1cccc(NC(=O)c2cc3cc(OCc4ccn[nH]4)ccc3cn2)c1` [Compound 307, (S)-6-((1H-pyrazol-5-yl)methoxy)-N-(3-(1-((4-methyl-4H-1,2,4-triazol-3-yl)thio)ethyl)phenyl)isoquinoline-3-carboxamide], the IC50 on Cbl-b was 100 to 300 nM. At Cbl-b (residues 36-427), this compound had a Kd of 301 to 1000 nM. The fold induction at 1 µM in the experiment on T-cell [5] was less than 0.6; in the experiment with T-cell [2] (setting [14]) it was 1.01 to 2.5; with T-cell [4] (setting [17]), less than 1; in the experiment on T-cell [6], 0.051 to 0.1. Besides, the fold induction at 8 µM is less than 0.6 in the experiment with T-cell [5] and 0.101 to 0.15 in the experiment with T-cell [6]. In addition, the results for the fold induction at 0.3 µM in the experiment with T-cell [2] (setting [13]) and in the experiment with T-cell [4] (setting [16]) were 1.01 to 2.5 and less than 1, respectively. Further, the fold induction at 4 µM lay within 2.51 to 5 in the experiment with T-cell [2] (setting [15]) and 1.01 to 1.3 in the experiment with T-cell [4] (setting [18]).
For the compound `C[C@H](Cc1nncn1C)c1cccc(NC(=O)c2[nH]nc3c2CCCC3)c1` [Compound 327, (R)-N-(3-(1-(4-Methyl-4H-1,2,4-triazol-3-yl)propan-2-yl)phenyl)-4,5,6,7-tetrahydro-2H-indazole-3-carboxamide], the IC50 on Cbl-b was in the range of 301 to 1000 nM. On Cbl-b (residues 36-427), this compound displayed a Kd of 1000 to 3000 nM. The fold induction at 1 µM lay within 0.601 to 0.8 with T-cell [5], 1.01 to 2.5 in the experiment with T-cell [2] (setting [14]), 1.01 to 1.3 in the experiment with T-cell [4] (setting [17]) and 0.051 to 0.1 with T-cell [6]. Moreover, the fold induction at 8 µM lay in the range of 0.801 to 1 with T-cell [5] and 0.051 to 0.1 in the experiment with T-cell [6]. The fold induction at 0.3 µM in the experiment with T-cell [2] (setting [13]) lay within 1.01 to 2.5; in the experiment with T-cell [4] (setting [16]), 1.01 to 1.3. Also, the fold induction at 4 µM lay within 1.01 to 2.5 in the experiment on T-cell [2] (setting [15]) and 1.01 to 1.3 in the experiment on T-cell [4] (setting [18]).
Regarding `Cc1ccc(C(=O)Nc2cccc([C@@H](C)Cc3nccn3C)c2)nc1C1CC1` [Compound 331], at Cbl-b, the IC50 was in the range of 301 to 1000 nM. For the same compound, the Kd at Cbl-b (residues 36-427) is 1000 to 3000 nM. The fold induction at 1 µM in the experiment on T-cell [5] is less than 0.6; in the experiment with T-cell [2] (setting [14]), 1.01 to 2.5; with T-cell [4] (setting [17]) it was less than 1; in the experiment with T-cell [6], less than 0.05. The fold induction at 8 µM in the experiment on T-cell [5] lay in the range of 0.601 to 0.8; in the experiment on T-cell [6] it was 0.051 to 0.1. Also, the fold induction at 0.3 µM with T-cell [2] (setting [13]) was 1.01 to 2.5; in the experiment with T-cell [4] (setting [16]), less than 1. The figures for the fold induction at 4 µM with T-cell [2] (setting [15]) and with T-cell [4] (setting [18]) were 1.01 to 2.5 and 1.01 to 1.3, respectively.
